For test [1], the system named is BM-myeloid cells. Briefly: Expression of MDSC biology-related genes in BM-myeloid cells. The conditions noted are these: 24 or 72 hours after initial L-fuc treatment. In kind it is cell-based, mouse. The protocol:
The expression of key MDSC biology-related genes was measured at 24 or 72 hours after in initial L-fuc treatment of the cells. Reductions in ARGI, PARP, and CHOP expression (red boxes; the expression of these genes are known to be required for MDSC immunosuppression. Increase in STAT1 is shown in green.
Next, we investigated the effect of L-fuc on NO production of bone marrow derived MDSCs (FIGS. 8A and 8B). We observed that L-fuc abrogated NO production in all cases. […] We also wanted to look at how L-fuc treatment effected the expression of immunosuppression genes (FIG. 9). We assessed the expression of key MDSC biology-related genes at 24 or 72 hours after in initial L-fuc treatment of the cells. Generally, we observed reductions in ARGI, PARP, and CHOP expression. In contrast we observed upregulation of STAT1. To further assess how L-fuc/fucosylation affects myeloid phenotype, we modulated fucosylation using DMSO (control), 2-fluoro-fucose (2FIF, fucosylation inhibitor), or L-fuc in mouse bone marrow-derived myeloid progenitors treated ±GM/G-CSF (FIG. 10). We profiled changes In M-MDSC vs. PMN-IMDSC, as well as moDC, as we observed immunostimulatory activity. […] Shown are the average values irom 12 mice. We also observed that L-fucose alters TLR profiles of dendritic cells (FIG. 11).

The test system of test [2] is SM1 tumors. Briefly: Immunodepletion mouse model (CD4+ or CD8+ T cell depletion), SM1. In kind it is in vivo, C57BL6 mice. To be noted: CD4+ but not CD8+T cell depletion. The text has this: Total TILs were gated first to single cells (based on forward scatter height vs width, followed by side scatter height vs. width). Live cells were gated from the Zombie negative population from the population above. TILs were gated based on splenocyte size from a control spleen. Individual immune subpopulations were sub-gated from the total TIL population using the following staining criteria: CD3+ for CD3+ T cells; CD3+/CD4+/CD8− for CD4+T cells; CD3+/CD4−/CD8+ for CD8+ T cells, CD11c+/CD11b+ for DCs; either NK1.1 (for C57/BL6 mice) or DX5 (for C3H/HeJ) for NK cells; CD11b+/GR1+ for MDSC-like cells; and F4/80+ for macrophages. Single-cell suspensions from tumor and spleen tissue were stained with Live/Dead Zombie NIR (Biolegend, (San Diego, CA)) at 1:1,000 in PBS for 20 min. Cell suspensions were spun down and stained with the following with antibodies at 0.5 μg/ml per antibody: APC anti-mouse CD3, Pacific Blue anti-mouse CD4, BV785 anti-mouse CD8, PerCP anti-mouse CD25, FITC anti-mouse F4/80, PeCy7 anti-mouse CD11c, PE anti-mouse NK1.1 or PE anti-mouse DX5, and PerCP-Cy5.5 anti-mouse CD11 b. After staining, the cells were washed and fixed (2% formaldehyde), followed by another wash and flow cytometric analysis. The compensation controls were prepared using 0.5 μg/mL of each antibody with UltraComp eBeads, (ThermoFisher Scientific (Waltham, MA)). […]

Regarding `C[C@H](O)[C@@H](O)[C@@H](O)[C@H](O)C=O` [L-fucose], in test [1], the “ARGI, PARP, and CHOP expression” value was “reductions”; the STAT1 expression result is “upregulation”. Besides, in test [2], the “L-fuc-triggered tumor suppression and increases in total itICs” value is “abrogated”.

The values above are taken from patent US20240197761A1, “FUCOSYLATION AND IMMUNE MODULATION IN CANCER” (H. LEE MOFFITT CANCER CENTER AND RESEARCH INSTITUTE, INC., priority 2021, published 2024).
